How the values were obtained:
Assay in all cases: Protein kinase selectivity panel
Assay type in all cases: biochemical
Conditions in all cases: 1.0 μM compound, 10 μM ATP
Abl(h) = Abl(h) (Homo sapiens, UniProt P00519)
Method in brief: (§1)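 Read-out is phosphorylation of the kinase's appropriate peptide/protein substrate, with and without 1.0 μM test compound. Assays used 10 μM ATP.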

Lyn(h) = Lyn(h) (Homo sapiens, UniProt P07948)
Method in brief: as §1

MST2(h) = target: T1, MST2(h) (Homo sapiens, UniProt Q13188)
T1 sequence (Q13188 1-491): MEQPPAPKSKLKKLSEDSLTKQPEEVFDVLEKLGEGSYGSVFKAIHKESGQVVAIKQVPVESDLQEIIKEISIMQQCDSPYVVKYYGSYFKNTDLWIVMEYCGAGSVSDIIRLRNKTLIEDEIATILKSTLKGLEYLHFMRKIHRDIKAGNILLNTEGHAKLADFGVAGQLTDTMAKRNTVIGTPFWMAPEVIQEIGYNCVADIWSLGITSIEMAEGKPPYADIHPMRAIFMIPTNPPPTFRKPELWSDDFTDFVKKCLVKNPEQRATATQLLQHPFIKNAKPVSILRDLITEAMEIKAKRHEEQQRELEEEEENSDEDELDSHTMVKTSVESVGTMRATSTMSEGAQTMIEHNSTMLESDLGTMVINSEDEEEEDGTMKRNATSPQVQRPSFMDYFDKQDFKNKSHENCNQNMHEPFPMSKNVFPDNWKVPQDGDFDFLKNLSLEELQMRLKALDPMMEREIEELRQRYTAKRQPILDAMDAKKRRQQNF
Method in brief: as §1

CSK(h) = CSK(h) (Homo sapiens, UniProt P41240)
Method in brief: as §1

PKA(h) = PKA(h) (Homo sapiens, UniProt P17612)
Method in brief: as §1

JNK1α1(h) = JNK1α1(h) (Homo sapiens, UniProt P45983)
Method in brief: as §1

IR(h) = IR(h) (Homo sapiens, UniProt P06213)
Method in brief: as §1

PKCθ(h) = PKCθ(h) (Homo sapiens, UniProt Q04759)
Method in brief: as §1

CDK7/cyclinH/MAT1(h) = CDK7/cyclinH/MAT1(h) (Homo sapiens, UniProt P50613)
Method in brief: as §1

IKKβ(h) = target: T2, IKKβ(h) (Homo sapiens, UniProt O14920)
T2 sequence (O14920 1-756): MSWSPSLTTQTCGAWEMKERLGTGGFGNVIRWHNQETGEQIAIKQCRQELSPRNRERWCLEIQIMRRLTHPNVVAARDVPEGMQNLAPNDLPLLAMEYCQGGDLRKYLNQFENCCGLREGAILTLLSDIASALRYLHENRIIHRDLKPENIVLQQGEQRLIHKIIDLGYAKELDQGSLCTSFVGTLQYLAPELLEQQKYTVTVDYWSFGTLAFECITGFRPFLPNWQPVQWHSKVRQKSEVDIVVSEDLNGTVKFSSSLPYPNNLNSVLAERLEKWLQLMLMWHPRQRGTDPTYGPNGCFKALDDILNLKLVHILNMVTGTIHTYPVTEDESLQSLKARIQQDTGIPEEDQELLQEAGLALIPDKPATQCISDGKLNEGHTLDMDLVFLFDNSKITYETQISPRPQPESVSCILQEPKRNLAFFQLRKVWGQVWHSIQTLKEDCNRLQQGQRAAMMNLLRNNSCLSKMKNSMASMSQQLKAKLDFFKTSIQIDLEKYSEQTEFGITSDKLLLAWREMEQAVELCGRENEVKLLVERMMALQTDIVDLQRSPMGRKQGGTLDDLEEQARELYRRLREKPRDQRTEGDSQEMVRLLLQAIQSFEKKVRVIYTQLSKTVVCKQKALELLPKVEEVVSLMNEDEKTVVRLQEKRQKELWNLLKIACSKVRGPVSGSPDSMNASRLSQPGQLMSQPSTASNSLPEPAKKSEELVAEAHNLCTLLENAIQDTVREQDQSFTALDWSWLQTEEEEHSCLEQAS
Method in brief: as §1

CDK6/cyclinD3(h) = CDK6/cyclinD3(h) (Homo sapiens, UniProt Q00534)
Method in brief: as §1

CaMKIV(h) = target: T3, CaMKIV(h) (Homo sapiens, UniProt Q16566)
T3 sequence (Q16566 1-473): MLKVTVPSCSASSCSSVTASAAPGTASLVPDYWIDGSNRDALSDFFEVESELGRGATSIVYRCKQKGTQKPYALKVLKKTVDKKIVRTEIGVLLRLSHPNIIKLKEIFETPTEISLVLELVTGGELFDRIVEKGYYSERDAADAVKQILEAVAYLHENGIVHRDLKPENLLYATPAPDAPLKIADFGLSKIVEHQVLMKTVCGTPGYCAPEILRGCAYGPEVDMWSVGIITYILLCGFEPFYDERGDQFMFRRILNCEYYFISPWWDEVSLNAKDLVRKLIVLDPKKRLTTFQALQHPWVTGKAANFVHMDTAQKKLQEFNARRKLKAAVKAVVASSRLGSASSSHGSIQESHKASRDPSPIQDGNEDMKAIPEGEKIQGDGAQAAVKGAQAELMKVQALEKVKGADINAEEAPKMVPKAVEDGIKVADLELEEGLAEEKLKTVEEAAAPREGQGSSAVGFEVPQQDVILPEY
Method in brief: as §1

Ros(h) = Ros(h) (Homo sapiens, UniProt P08922)
Method in brief: as §1

Yes(h) = target: T4, Yes(h) (Homo sapiens, UniProt P07947)
T4 construct: purchased Upstate Cell Signaling Solutions (KinaseProfiler Selectivity Screening Service)
Method in brief: as §1

JNK3(h) = JNK3(h) (Homo sapiens, UniProt P53779)
Method in brief: as §1

Ros(h), sequence (P08922 28-2347): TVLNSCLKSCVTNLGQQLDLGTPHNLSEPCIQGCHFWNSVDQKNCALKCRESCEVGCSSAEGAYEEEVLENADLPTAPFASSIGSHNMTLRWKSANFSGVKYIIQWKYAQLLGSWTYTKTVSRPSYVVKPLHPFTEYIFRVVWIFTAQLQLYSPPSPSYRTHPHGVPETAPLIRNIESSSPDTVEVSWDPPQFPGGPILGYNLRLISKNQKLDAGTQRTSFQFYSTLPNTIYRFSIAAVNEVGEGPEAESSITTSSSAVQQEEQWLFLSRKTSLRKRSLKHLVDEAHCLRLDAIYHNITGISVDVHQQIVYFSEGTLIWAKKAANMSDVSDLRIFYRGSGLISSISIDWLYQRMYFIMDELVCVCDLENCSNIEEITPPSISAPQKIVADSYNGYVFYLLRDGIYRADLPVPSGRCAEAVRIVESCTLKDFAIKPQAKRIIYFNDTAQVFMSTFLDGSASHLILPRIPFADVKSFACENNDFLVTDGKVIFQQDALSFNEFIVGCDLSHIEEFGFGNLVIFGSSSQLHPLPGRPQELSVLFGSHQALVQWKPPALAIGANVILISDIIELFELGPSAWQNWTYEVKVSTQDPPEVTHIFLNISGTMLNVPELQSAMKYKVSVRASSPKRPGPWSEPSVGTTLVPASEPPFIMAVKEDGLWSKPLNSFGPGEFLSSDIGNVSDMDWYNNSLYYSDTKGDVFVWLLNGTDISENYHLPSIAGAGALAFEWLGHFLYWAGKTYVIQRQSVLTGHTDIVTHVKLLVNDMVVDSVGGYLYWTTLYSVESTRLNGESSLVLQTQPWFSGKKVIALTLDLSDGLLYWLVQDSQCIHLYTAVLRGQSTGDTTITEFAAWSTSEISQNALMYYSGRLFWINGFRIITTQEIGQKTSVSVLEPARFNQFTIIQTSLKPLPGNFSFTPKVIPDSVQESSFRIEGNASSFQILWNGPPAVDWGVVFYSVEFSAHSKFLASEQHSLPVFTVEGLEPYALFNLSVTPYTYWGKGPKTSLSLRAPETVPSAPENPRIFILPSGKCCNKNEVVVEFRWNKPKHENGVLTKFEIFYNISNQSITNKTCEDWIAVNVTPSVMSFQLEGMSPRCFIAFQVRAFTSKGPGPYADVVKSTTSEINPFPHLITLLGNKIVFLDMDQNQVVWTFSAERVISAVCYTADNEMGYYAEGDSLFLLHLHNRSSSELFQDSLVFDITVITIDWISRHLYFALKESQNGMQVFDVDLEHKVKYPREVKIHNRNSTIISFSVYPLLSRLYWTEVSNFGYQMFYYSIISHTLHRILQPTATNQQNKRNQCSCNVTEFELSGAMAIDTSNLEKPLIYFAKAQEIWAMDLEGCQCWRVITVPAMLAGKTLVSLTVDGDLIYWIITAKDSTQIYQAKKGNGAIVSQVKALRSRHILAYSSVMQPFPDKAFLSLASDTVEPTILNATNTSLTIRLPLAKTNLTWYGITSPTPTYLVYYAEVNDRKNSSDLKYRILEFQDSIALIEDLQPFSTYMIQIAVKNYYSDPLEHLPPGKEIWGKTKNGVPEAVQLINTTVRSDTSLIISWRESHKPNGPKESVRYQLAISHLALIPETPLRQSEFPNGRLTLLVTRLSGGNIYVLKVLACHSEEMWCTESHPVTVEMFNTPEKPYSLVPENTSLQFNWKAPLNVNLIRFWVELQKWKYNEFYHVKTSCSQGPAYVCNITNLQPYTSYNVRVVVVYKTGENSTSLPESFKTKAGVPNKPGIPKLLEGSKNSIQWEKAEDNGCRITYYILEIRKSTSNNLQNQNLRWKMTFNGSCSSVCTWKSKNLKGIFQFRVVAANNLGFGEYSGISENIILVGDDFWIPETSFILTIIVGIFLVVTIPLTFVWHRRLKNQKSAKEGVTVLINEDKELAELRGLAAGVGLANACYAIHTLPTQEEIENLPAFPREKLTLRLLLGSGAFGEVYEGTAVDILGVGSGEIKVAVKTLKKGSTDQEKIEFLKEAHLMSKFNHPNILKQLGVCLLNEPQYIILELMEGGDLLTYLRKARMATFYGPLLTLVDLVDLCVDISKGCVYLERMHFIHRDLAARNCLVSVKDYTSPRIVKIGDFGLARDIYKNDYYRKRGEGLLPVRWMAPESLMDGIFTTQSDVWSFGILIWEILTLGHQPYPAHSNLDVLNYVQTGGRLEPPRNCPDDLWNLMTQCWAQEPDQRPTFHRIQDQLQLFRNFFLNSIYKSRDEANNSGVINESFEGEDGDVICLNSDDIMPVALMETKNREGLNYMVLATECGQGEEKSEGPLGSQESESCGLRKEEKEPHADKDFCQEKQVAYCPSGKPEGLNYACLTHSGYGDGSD
PKCθ(h), sequence (Q04759 whole entry): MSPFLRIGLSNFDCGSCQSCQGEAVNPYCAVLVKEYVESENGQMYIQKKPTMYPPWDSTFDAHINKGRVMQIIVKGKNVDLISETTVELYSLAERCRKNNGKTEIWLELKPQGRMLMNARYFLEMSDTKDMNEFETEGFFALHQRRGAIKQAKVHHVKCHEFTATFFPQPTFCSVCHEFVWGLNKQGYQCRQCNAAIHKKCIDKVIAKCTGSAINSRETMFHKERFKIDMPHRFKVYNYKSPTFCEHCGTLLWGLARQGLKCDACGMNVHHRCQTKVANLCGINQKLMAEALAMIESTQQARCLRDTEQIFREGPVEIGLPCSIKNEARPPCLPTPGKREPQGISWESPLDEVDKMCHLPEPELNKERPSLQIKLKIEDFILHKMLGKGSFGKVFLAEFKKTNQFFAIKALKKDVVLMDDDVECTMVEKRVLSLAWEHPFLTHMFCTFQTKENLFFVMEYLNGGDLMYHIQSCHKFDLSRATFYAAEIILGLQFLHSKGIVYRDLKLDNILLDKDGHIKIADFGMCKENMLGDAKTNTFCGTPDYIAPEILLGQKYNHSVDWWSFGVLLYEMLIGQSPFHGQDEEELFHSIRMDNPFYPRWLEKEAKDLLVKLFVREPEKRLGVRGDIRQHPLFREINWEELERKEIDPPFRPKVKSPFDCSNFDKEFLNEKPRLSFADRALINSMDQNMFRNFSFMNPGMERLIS
T4 sequence (P07947 whole entry): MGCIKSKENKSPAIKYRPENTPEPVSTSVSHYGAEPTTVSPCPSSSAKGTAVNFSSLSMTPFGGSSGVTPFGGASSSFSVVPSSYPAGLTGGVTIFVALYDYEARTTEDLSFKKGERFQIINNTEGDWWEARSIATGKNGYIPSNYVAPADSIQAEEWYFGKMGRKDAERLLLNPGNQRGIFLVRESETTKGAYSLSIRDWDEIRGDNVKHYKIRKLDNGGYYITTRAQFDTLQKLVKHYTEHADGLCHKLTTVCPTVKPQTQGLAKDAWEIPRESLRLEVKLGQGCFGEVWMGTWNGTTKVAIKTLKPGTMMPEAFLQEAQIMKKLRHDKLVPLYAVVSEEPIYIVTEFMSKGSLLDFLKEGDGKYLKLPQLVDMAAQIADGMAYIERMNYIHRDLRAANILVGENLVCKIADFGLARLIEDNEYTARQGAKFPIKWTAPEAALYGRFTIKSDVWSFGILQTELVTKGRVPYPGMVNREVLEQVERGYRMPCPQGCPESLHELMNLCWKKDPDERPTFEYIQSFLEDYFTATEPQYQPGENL
JNK3(h), sequence (P53779 whole entry): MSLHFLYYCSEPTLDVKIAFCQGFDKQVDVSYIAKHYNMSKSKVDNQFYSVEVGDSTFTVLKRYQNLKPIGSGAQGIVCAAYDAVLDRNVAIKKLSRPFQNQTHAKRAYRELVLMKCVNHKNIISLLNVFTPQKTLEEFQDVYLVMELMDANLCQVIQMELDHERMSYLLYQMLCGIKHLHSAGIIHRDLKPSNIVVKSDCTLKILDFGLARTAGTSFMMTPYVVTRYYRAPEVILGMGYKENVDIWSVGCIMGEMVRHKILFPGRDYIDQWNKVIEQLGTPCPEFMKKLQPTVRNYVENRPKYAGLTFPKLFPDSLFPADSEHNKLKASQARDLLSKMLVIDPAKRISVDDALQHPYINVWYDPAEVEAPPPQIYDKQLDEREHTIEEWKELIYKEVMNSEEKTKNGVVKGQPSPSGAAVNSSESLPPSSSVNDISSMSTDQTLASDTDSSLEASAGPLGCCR
CDK7/cyclinH/MAT1(h), sequence (P50613 whole entry): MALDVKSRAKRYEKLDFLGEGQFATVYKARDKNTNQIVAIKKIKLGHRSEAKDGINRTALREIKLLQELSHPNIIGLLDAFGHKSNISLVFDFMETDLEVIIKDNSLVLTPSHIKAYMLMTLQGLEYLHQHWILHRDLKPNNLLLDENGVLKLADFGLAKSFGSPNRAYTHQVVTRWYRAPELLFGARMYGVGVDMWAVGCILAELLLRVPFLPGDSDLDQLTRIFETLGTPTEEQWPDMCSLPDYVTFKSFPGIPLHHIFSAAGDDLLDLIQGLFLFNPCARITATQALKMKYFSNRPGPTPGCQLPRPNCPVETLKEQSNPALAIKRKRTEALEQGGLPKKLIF
CDK7/cyclinH/MAT1(h), sequence (P51946 whole entry partner): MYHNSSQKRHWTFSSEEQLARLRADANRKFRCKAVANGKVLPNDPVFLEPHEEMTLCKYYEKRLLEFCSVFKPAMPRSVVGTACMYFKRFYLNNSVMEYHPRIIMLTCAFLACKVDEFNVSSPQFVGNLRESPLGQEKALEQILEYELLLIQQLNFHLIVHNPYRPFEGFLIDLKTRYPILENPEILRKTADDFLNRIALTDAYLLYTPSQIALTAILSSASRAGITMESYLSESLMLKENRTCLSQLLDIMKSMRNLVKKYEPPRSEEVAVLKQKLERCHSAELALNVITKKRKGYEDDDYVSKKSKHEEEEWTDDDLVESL
CDK7/cyclinH/MAT1(h), sequence (P51948 whole entry partner): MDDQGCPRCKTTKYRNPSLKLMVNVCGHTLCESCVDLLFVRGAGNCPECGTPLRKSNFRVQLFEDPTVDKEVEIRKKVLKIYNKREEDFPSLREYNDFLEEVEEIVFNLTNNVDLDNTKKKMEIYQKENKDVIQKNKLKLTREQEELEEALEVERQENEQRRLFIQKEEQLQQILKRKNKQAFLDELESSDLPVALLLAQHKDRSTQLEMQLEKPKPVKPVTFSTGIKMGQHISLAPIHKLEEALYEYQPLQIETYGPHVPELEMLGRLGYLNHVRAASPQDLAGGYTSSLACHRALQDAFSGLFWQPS

Activity at Protein Kinase Assays (% of control), Abl(h) (Abl(h)) | Activity at Protein Kinase Assays (% of control), Lyn(h) (Lyn(h)) | Activity at Protein Kinase Assays (% of control), MST2(h) (MST2(h)) | Activity at Protein Kinase Assays (% of control), CSK(h) (CSK(h)) | Activity at Protein Kinase Assays (% of control), PKA(h) (PKA(h)) | Activity at Protein Kinase Assays (% of control), JNK1α1(h) (JNK1α1(h)) | Activity at Protein Kinase Assays (% of control), IR(h) (IR(h)) | Activity at Protein Kinase Assays (% of control), PKCθ(h) (PKCθ(h)) | Activity at Protein Kinase Assays (% of control), CDK7/cyclinH/MAT1(h) (CDK7/cyclinH/MAT1(h)) | Activity at Protein Kinase Assays (% of control), IKKβ(h) (IKKβ(h)) | Activity at Protein Kinase Assays (% of control), CDK6/cyclinD3(h) (CDK6/cyclinD3(h)) | Activity at Protein Kinase Assays (% of control), CaMKIV(h) (CaMKIV(h)) | Activity at Protein Kinase Assays (% of control), Ros(h) (Ros(h)) | Activity at Protein Kinase Assays (% of control), Yes(h) (Yes(h)) | Activity at Protein Kinase Assays (% of control), JNK3(h) (JNK3(h)) | SMILES
108 % of control | 78 % of control | 86 % of control | 129 % of control | 102 % of control | 104 % of control | 87 % of control | 33 % of control | 111 % of control | 130 % of control | 92 % of control | 99 % of control | 105 % of control | 43 % of control | 102 % of control | O=C1NC(=O)C2=C1c1cn(c3ccccc13)CCCc1ccc(c(N3CCCC3)n1)CCCn1cc2c2ccccc21 [Cpd 7, 31-pyrrolidin-1-yl-5,15,25,30-tetraazaheptacyclo[27.2.2.1^5,12.1^18,25.0^6,11.0^13,17.0^19,24]pentatriaconta-1(31),6,8,10,12(35),13(17),18(34),19,21,23,29,32-dodecaene-14,16-dione]
105 % of control | 107 % of control | 103 % of control | 95 % of control | 90 % of control | 102 % of control | 91 % of control | 21 % of control | 89 % of control | 128 % of control | 86 % of control | 92 % of control | 79 % of control | 96 % of control | 96 % of control | CN(C)c1nc2ccc1CCCCn1cc(c3ccccc31)C1=C(C(=O)NC1=O)c1cn(c3ccccc13)CCC2 [Cpd 1, 31-(dimethylamino)-5,15,25,32-tetraazaheptacyclo[28.2.2.1^5,12.1^18,25.0^6,11.0^13,17.0^19,24]hexatriaconta-1(32),6,8,10,12(36),13(17),18(35),19,21,23,30,33-dodecaene-14,16-dione]
107 % of control | 87 % of control | 100 % of control | 125 % of control | 104 % of control | 108 % of control | 110 % of control | 29 % of control | 107 % of control | 125 % of control | 82 % of control | 112 % of control | 117 % of control | 58 % of control | 103 % of control | O=C1NC(=O)C2=C1c1cn(c3ccccc13)CCCc1cc(nc(N3CCCC3)c1)CCCn1cc2c2ccccc21 [Cpd 6, 20-pyrrolidin-1-yl-4,14,19,26-tetraazaheptacyclo[24.6.1.1^7,14.1^18,22.0^2,6.0^8,13.0^27,32]pentatriaconta-1(33),2(6),7(35),8,10,12,18(34),19,21,27,29,31-dodecaene-3,5-dione]
98 % of control | 76 % of control | 84 % of control | 133 % of control | 95 % of control | 105 % of control | 102 % of control | 27 % of control | 108 % of control | 124 % of control | 74 % of control | 113 % of control | 108 % of control | 79 % of control | 107 % of control | CN(C)c1cc2cc(n1)CCCn1cc(c3ccccc31)C1=C(C(=O)NC1=O)c1cn(c3ccccc13)CCC2 [Cpd 2, 20-(dimethylamino)-4,14,19,26-tetraazaheptacyclo[24.6.1.1^7,14.1^18,22.0^2,6.0^8,13.0^27,32]pentatriaconta-1(33),2(6),7(35),8,10,12,18(34),19,21,27,29,31-dodecaene-3,5-dione]

Source: patent US7759331B2, “Pyridine-containing macroheterococylic compounds as kinase inhibitors” (Janssen Pharmaceutica NV, priority 2006, dated 2010)
